Data on five compounds can be found in EP0974353A2, “The use of homocysteine derivatives for the preparation of medicaments inhibiting bacterial adhesiveness” (EDMOND PHARMA S.R.L., priority 1998, dated 2000).

Entries after “also recorded” stand apart in the source; their conditions may differ.

For test [1], the system named is E. coli strains, ATCC 25922 strain and two others isolated from human urinary infections. Nature of the test: Inhibition of bacterial adhesiveness to human buccal/palatal epithelial cells, E. coli. Conditions: three E. coli strains; for inhibitory activity on adhesiveness: even at the maximum tested concentration (10 mcg/ml). It is filed as cell-based. As for the experimental part: (§1) Said procedures consist in incubating the active substance with bacteria in order to interfere with their adhesiveness mechanism and subsequently adding mucosa cells, observing the obtained result.
(§2) Human epithelial cells were collected from buccal and palatal mucosa of healthy volunteers by a sterile spatula, subsequently immersed in 2 ml of physiological saline buffered with phosphate buffer, combining then the suspensions from different volunteers.
(§3) Tests were carried out with three different E. coli strains, ATCC 25922 strain and two others isolated from human urinary infections, as well as with three S. aureus strains, ATCC 25923 strain and two others from human respiratory infections, using concentrations of 1.25, 2.5, 5 and 10 mcg/ ml for each tested compound.

For test [2], the system named is bacterial adhesiveness. Nature of the test: Inhibition of bacterial adhesiveness, bacterium not specified. It is filed as cell-based. Conditions: bacterium and concentration not given; general statement. As for the experimental part: as §1, §2, §3
Test [3] relates to S. aureus strains, ATCC 25923 strain and two others from human respiratory infections. Nature of the test: Inhibition of bacterial adhesiveness to human buccal/palatal epithelial cells, S. aureus. It is filed as cell-based. As for the experimental part: as §1, §2, §3
For test [4] the following is noted: rank among the erdosteine metabolites; from R. Scuri et al.; cited from earlier work.

As to `CC(=O)N[C@@H](CS)C(=O)O` [N-acetylcysteine], the “inhibitory activity on adhesiveness” value in test [1] was “no inhibitory activity”. The “inhibition of bacterial adhesiveness” value in test [2] is “much less active, or even inactive”. Also, the “activity in reducing bacterial adhesiveness” value in test [3] (incubation with S. aureus, concentration not stated (tested 1.25, 2.5, 5 and 10 mcg/ml)) is reported as “no specific activity”.
As to `CC(=O)N[C@@H](CCS)C(=O)O` [N-acetylhomocysteine], the “inhibitory activity on adhesiveness” value in test [1] is “no inhibitory activity”.
With `O=C(O)CSCC(=O)NC(CCS)C(=O)O` (stereo not shown) [compound (A), N-(Thiodiglycoyl)homocysteine], the “inhibitory activity of bacterial adhesiveness” value in test [1] (already at a concentration of 2.5 mcg/ml, compared with the control (bacteria with no tested compound)) is “significant inhibitory activity”. The mucolytic activity entry in test [4] is reported as “lowest mucolytic activity”. For the same compound, in test [2], the “inhibition of bacterial adhesiveness” value is “remarkable inhibitory activity”. Besides, the “reduction of S. aureus adhesiveness to epithelial cells” value in test [3] (at concentrations of 2.5 to 10 mcg/ml) was “significant reduction”.
For `O=C(O)CSCC(=O)NC1CCSC1=O` (stereo not shown) [erdosteine, N-(thiodiglycoyl)homocysteine gamma-thiolactone], the “inhibition of bacterial adhesiveness” value in test [2] is on record as “not inhibited in a statistically significant way; also recorded: almost devoid of such an activity”.
Consider `N[C@@H](CCS)C(=O)O` [homocysteine], for which the “inhibitory activity on adhesiveness, difference compared with the control test” value in test [1] (concentration not stated (tested 1.25, 2.5, 5 and 10 mcg/ml)) was “some difference, which however was not statistically significant”.
